In patent publication US20080004253A1, “Thiazolopyrimidine modulators of TRPV1” (priority 2006, published 2008):

Key:
human TRPV1 = biological target: T1, human TRPV1 (Homo sapiens, UniProt Q8NER1); assay: Functional assay: block of capsaicin-induced Ca2+ influx, human assay (hTRPV1/HEK293, FLIPR); type: cell-based; conditions: hTRPV1/HEK293 cells, 150 nM capsaicin challenge, Fluo-3 fluorescence; mean; > value = solubility limit in assay medium
T1 construct: expressed in transfected cells; host or cells: HEK293 (hTRPV1/HEK293), zeocin selection
T1 sequence (Q8NER1 whole entry): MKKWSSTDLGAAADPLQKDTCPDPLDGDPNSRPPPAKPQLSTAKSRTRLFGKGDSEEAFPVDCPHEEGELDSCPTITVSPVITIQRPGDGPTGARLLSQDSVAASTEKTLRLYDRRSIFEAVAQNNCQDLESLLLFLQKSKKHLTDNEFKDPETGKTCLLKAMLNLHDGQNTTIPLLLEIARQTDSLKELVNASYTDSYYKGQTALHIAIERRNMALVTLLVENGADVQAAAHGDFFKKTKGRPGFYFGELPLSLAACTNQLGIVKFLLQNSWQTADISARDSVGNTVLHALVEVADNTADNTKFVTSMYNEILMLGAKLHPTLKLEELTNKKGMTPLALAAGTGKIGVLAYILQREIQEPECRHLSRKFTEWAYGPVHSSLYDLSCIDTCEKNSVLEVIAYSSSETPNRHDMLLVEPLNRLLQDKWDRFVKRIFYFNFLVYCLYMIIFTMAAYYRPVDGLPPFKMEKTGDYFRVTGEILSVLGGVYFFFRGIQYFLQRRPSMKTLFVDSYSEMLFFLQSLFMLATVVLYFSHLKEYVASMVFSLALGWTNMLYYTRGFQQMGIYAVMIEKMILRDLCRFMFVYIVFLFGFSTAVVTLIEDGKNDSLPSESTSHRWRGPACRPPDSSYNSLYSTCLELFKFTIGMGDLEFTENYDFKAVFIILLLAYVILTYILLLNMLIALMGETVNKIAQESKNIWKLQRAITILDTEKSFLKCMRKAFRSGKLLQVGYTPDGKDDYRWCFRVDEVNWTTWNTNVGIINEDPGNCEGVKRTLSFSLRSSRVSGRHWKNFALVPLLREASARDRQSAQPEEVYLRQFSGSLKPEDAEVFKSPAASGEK
Protocol: (§1) Functional assay: block of capsaicin-induced Ca^2+ influx
(§2) HEK293 cells were transfected with human TRPV1 cloned in pcDNA3.1zeo(+) using the Effectene non-liposomal lipid based transfection kit (Qiagen) (hTRPV1/HEK293). hTRPV1/HEK293 cells were routinely grown as monolayers under selection in zeocin (200 μg/mL; Invitrogen) in Dulbecco's Modified Eagle Medium (DMEM, Gibco BRL) supplemented with 10% fetal bovine serum, and penicillin/streptomycin (50 units/mL) in 5% CO2 at 37° C. Cells were passaged frequently, every 3-5 days, to avoid overgrowth, depletion of essential medium components, or acidic medium exposure. Cells were passaged using a brief wash in 0.05% trypsin with 1 mM EDTA, followed by dissociation in divalent-free phosphate-buffered saline (Hyclone #SH30028.02). […] The assay buffer was composed of 130 mM NaCl, 2 mM KCl, 2 mM MgCl2, 10 mM HEPES, 5 mM glucose, and either 2 mM or 20 μM CaCl2. On the day of the experiment, the culture medium was replaced with 2 mM calcium assay buffer using an automated plate washer (ELx405; Biotek, VT). […] After loading the cells, the dye solution was replaced with 50 μL/well of 20 μM calcium assay buffer using the ELx405 plate washer. Test compounds (50 μL/well) were added to the plate and incubated for 30 min. […] The IC50 values were determined. […] The contents of the wells were mixed 3 times (40 μL mix volume) immediately after the additions were made. Concentration-dependence of block was determined by exposing each well of cells in duplicate rows of a 96-well plate to a serial dilution of test compound. The concentration series usually started at 10 μM with a three-fold serial decrement in concentration. The magnitude of the capsaicin response was determined by measuring the change in fluo3 fluorescence before and 100 seconds after the addition of the agonist. Data were analyzed using a non-linear regression program (Origin; OriginLab, MA).
(§3) IC50 values shown are the average (mean) of the results obtained. […] Compounds were tested in either the free base or trifluoroacetic acid salt form.

rat TRPV1 = biological target: T2, rat TRPV1 (Rattus norvegicus, UniProt O35433); assay: Functional assay: block of capsaicin-induced Ca2+ influx, rat assay (rTRPV1/HEK293, FLIPR); type: cell-based; conditions: rTRPV1/HEK293 cells, capsaicin challenge, Fluo-3 fluorescence; mean; > value = solubility limit in assay medium
T2 construct: expressed in transfected cells; host or cells: HEK293 (rTRPV1/HEK293), geneticin selection
T2 sequence (O35433 whole entry): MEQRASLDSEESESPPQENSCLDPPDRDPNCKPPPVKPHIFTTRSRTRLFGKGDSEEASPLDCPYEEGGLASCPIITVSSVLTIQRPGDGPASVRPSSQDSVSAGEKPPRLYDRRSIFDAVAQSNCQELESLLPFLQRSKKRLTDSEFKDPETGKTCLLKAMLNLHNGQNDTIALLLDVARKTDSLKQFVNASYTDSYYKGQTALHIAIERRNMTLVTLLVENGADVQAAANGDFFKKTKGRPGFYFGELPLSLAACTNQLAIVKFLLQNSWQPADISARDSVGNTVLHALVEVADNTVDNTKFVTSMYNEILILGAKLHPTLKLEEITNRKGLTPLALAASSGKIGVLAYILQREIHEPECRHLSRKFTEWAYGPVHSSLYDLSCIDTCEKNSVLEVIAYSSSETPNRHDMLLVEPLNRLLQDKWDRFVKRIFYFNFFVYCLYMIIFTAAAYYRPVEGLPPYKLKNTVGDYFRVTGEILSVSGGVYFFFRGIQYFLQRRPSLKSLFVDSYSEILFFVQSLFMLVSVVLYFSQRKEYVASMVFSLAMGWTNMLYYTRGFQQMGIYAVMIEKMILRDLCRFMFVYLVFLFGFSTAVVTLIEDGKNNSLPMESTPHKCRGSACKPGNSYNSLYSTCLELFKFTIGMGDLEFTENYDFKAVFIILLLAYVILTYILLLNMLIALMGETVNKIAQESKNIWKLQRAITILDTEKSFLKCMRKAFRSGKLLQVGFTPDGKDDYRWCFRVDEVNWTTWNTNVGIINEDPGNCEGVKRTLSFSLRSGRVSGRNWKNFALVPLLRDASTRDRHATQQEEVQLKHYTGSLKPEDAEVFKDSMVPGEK
Protocol: as §1, §2
This assay was performed similarly to the human assay described above, but using HEK293 cells transfected with rat TRPV1 (rTRPV1/HEK293).
as §3

Compound: COC(=O)c1ccc(Nc2ncnc3sc(Nc4c(C)cccc4C)nc23)cc1 [Example 37, 4-[2-(2,6-Dimethyl-phenylamino)-thiazolo[5,4-d]pyrimidin-7-ylamino]-benzoic acid methyl ester]
- IC50 (human TRPV1): 134 nM
- IC50 (rat TRPV1): 38 nM

Compound: COc1cc(CNc2ncnc3sc(Nc4c(C)cccc4C)nc23)ccc1O [Example 38, 4-{[2-(2,6-Dimethyl-phenylamino)-thiazolo[5,4-d]pyrimidin-7-ylamino]-methyl}-2-methoxy-phenol]
- IC50 (human TRPV1): > 20000 nM
- IC50 (rat TRPV1): 7130 nM

Compound: Cc1cccc(C)c1Nc1nc2c(NCc3ccc(Cl)c(Cl)c3)ncnc2s1 [Example 39, N^7-(3,4-Dichloro-benzyl)-N^2-(2,6-dimethyl-phenyl)-thiazolo[5,4-d]pyrimidine-2,7-diamine]
- IC50 (human TRPV1): > 6670 nM
- IC50 (rat TRPV1): > 6670 nM

Compound: Cc1cccc(C)c1Nc1nc2c(Nc3ccc(SC(F)(F)F)cc3)ncnc2s1 [Example 40, N^2-(2,6-Dimethyl-phenyl)-N^7-(4-trifluoromethylsulfanyl-phenyl)-thiazolo[5,4-d]pyrimidine-2,7-diamine]
- IC50 (human TRPV1): 67 nM
- IC50 (rat TRPV1): 16 nM

Compound: Cc1cccc(C)c1Nc1nc2c(NC3Cc4ccccc4C3)ncnc2s1 [Example 41, N^2-(2,6-Dimethyl-phenyl)-N^7-indan-2-yl-thiazolo[5,4-d]pyrimidine-2,7-diamine]
- IC50 (human TRPV1): > 6670 nM
- IC50 (rat TRPV1): 2040 nM

Compound: Cc1cccc(C)c1Nc1nc2c(Nc3cccc(C(F)(F)F)c3)ncnc2s1 [Example 42, N^2-(2,6-Dimethyl-phenyl)-N^7-(3-trifluoromethyl-phenyl)-thiazolo[5,4-d]pyrimidine-2,7-diamine]
- IC50 (human TRPV1): 4980 nM
- IC50 (rat TRPV1): 236 nM

Compound: Cc1cccc(C)c1Nc1nc2c(NCc3ccccc3)ncnc2s1 [Example 43, N^7-Benzyl-N^2-(2,6-dimethyl-phenyl)-thiazolo[5,4-d]pyrimidine-2,7-diamine]
- IC50 (human TRPV1): > 6670 nM
- IC50 (rat TRPV1): > 6670 nM

Compound: Cc1cccc(C)c1Nc1nc2c(Nc3ccc(S(N)(=O)=O)cc3)ncnc2s1 [Example 44, 4-[2-(2,6-Dimethyl-phenylamino)-thiazolo[5,4-d]pyrimidin-7-ylamino]-benzenesulfonamide]
- IC50 (human TRPV1): 14700 nM
- IC50 (rat TRPV1): 3620 nM

Compound: CCc1ccc(Nc2ncnc3sc(Nc4c(C)cccc4C)nc23)cc1 [Example 45, N^2-(2,6-Dimethyl-phenyl)-N^7-(4-ethyl-phenyl)-thiazolo[5,4-d]pyrimidine-2,7-diamine]
- IC50 (human TRPV1): 70 nM
- IC50 (rat TRPV1): 37 nM

Compound: Cc1cccc(C)c1Nc1nc2c(Nc3ccc(C(C)C)cc3)ncnc2s1 [Example 46, N^2-(2,6-Dimethyl-phenyl)-N^7-(4-isopropyl-phenyl)-thiazolo[5,4-d]pyrimidine-2,7-diamine]
- IC50 (human TRPV1): 8 nM
- IC50 (rat TRPV1): 5 nM

Compound: Cc1ccc(CNc2ncnc3sc(Nc4c(C)cccc4C)nc23)o1 [Example 47, N^2-(2,6-Dimethyl-phenyl)-N^7-(5-methyl-furan-2-ylmethyl)-thiazolo[5,4-d]pyrimidine-2,7-diamine]
- IC50 (human TRPV1): > 6670 nM
- IC50 (rat TRPV1): > 6670 nM

Compound: COC(=O)c1scc(C)c1Nc1nc2c(Nc3ccc(C(F)(F)F)cc3)ncnc2s1 [Example 48, 4-Methyl-3-[7-(4-trifluoromethyl-phenylamino)-thiazolo[5,4-d]pyrimidin-2-ylamino]-thiophene-2-carboxylic acid methyl ester]
- IC50 (human TRPV1): 207 nM
- IC50 (rat TRPV1): 202 nM

Compound: COC(=O)c1scc(C)c1Nc1nc2c(Nc3ccc(C(F)(F)F)nc3)ncnc2s1 [Example 49, 4-Methyl-3-[7-(6-trifluoromethyl-pyridin-3-ylamino)-thiazolo[5,4-d]pyrimidin-2-ylamino]-thiophene-2-carboxylic acid methyl ester]
- IC50 (human TRPV1): 375 nM
- IC50 (rat TRPV1): 431 nM

Compound: Cc1noc(C)c1Nc1nc2c(Nc3ccc(C(F)(F)F)c(Cl)c3)ncnc2s1 [Example 50, N^7-(3-Chloro-4-trifluoromethyl-phenyl)-N^2-(3,5-dimethyl-isoxazol-4-yl)thiazolo[5,4d]pyrimidine-2,7-diamine]
- IC50 (human TRPV1): > 6670 nM
- IC50 (rat TRPV1): > 6670 nM

Compound: Cc1noc(C)c1Nc1nc2c(Nc3ccc(C(C)(C)C)cc3)ncnc2s1 [Example 51, N^7-(4-tert-Butyl-phenyl)-N^2-(3,5-dimethyl-isoxazol-4-yl)-thiazolo[5,4-d]pyrimidine-2,7-diamine]
- IC50 (human TRPV1): 223 nM
- IC50 (rat TRPV1): 34 nM

Compound: CSc1nc(Nc2ccc(C(F)(F)F)cc2)c2nc(Nc3c(Cl)cccc3Cl)sc2n1 [Example 52, N^2-(2,6-Dichloro-phenyl)-5-methylsulfanyl-N^7-(4-trifluoromethyl-phenyl)-thiazolo[5,4-d]pyrimidine-2,7-diamine]
- IC50 (human TRPV1): 226 nM
- IC50 (rat TRPV1): 154 nM

Compound: CS(=O)(=O)c1nc(Nc2ccc(C(F)(F)F)cc2)c2nc(Nc3c(Cl)cccc3Cl)sc2n1 [Example 53, N^2-(2,6-Dichloro-phenyl)-5-methanesulfonyl-N^7-(4-trifluoromethyl-phenyl)-thiazolo[5,4-d]pyrimidine-2,7-diamine]
- IC50 (human TRPV1): 196 nM
- IC50 (rat TRPV1): 93 nM

Compound: FC(F)(F)c1ccc(Nc2nc(N3CCCCC3)nc3sc(Nc4c(Cl)cccc4Cl)nc23)cc1 [Example 54, N^2-(2,6-Dichloro-phenyl)-5-piperidin-1-yl-N^7-(4-trifluoromethyl-phenyl)-thiazolo[5,4-d]pyrimidine-2,7-diamine]
- IC50 (human TRPV1): 63 nM
- IC50 (rat TRPV1): 33 nM

Compound: COc1nc(Nc2ccc(C(F)(F)F)cc2)c2nc(Nc3c(Cl)cccc3Cl)sc2n1 [Example 55, N^2-(2,6-Dichloro-phenyl)-5-methoxy-N^7-(4-trifluoromethyl-phenyl)-thiazolo[5,4d]pyrimidine-2,7-diamine]
- IC50 (human TRPV1): > 20000 nM
- IC50 (rat TRPV1): > 20000 nM

Compound: CN(C)c1nc(Nc2ccc(C(F)(F)F)cc2)c2nc(Nc3c(Cl)cccc3Cl)sc2n1 [Example 56, N^2-(2,6-Dichloro-phenyl)-N^5,N^5-dimethyl-N^7-(4-trifluoromethyl-phenyl)-thiazolo[5,4-d]pyrimidine-2,5,7-triamine]
- IC50 (human TRPV1): 32 nM
- IC50 (rat TRPV1): 44 nM

Compound: FC(F)(F)c1ccc(Nc2nc(N3CCCC3)nc3sc(Nc4c(Cl)cccc4Cl)nc23)cc1 [Example 58, N^2-(2,6-Dichloro-phenyl)-5-pyrrolidin-1-yl-N^7-(4-trifluoromethyl-phenyl)-thiazolo[5,4-d]pyrimidine-2,7-diamine]
- IC50 (human TRPV1): 15 nM
- IC50 (rat TRPV1): 48 nM

Compound: FC(F)(F)c1ccc(Nc2nc(N3CCC3)nc3sc(Nc4c(Cl)cccc4Cl)nc23)cc1 [Example 59, 5-Azetidin-1-yl-N^2-(2,6-dichloro-phenyl)-N^7-(4-trifluoromethyl-phenyl)-thiazolo[5,4-d]pyrimidine-2,7-diamine]
- IC50 (human TRPV1): 63 nM
- IC50 (rat TRPV1): 22 nM

Compound: FC(F)(F)c1ccc(Nc2nc(NCC3CC3)nc3sc(Nc4c(Cl)cccc4Cl)nc23)cc1 [Example 62, N^5-Cyclopropylmethyl-N^2-(2,6-dichloro-phenyl)-N^7-(4-trifluoromethyl-phenyl)-thiazolo[5,4-d]pyrimidine-2,5,7-triamine]
- IC50 (human TRPV1): 20 nM
- IC50 (rat TRPV1): 4 nM

Compound: FC(F)(F)c1ccc(Nc2nc(N3CCOCC3)nc3sc(Nc4c(Cl)cccc4Cl)nc23)cc1 [Example 64, N^2-(2,6-Dichloro-phenyl)-5-morpholin-4-yl-N^7-(4-trifluoromethyl-phenyl)-thiazolo[5,4-d]pyrimidine-2,7-diamine]
- IC50 (human TRPV1): 41 nM
- IC50 (rat TRPV1): 17 nM

Compound: CC(C)N1CCN(c2nc(Nc3ccc(C(F)(F)F)cc3)c3nc(Nc4c(Cl)cccc4Cl)sc3n2)CC1 [Example 69, N^2-(2,6-Dichloro-phenyl)-5-(4-isopropyl-piperazin-1-yl)-N^7-(4-trifluoromethyl-phenyl)-thiazolo[5,4-d]pyrimidine-2,7-diamine]
- IC50 (human TRPV1): 185 nM
- IC50 (rat TRPV1): 154 nM

Compound: FC(F)(F)c1ccc(Nc2nc(-c3ccccc3)nc3sc(Nc4c(Cl)cccc4Cl)nc23)cc1 [Example 70, N^2-(2,6-Dichloro-phenyl)-5-phenyl-N^7-(4-trifluoromethyl-phenyl)-thiazolo[5,4-d]pyrimidine-2,7-diamine]
- IC50 (human TRPV1): 225 nM
- IC50 (rat TRPV1): 83 nM

Compound: FC(F)(F)c1ccc(Nc2ncnc3sc(Nc4c(Cl)cncc4Cl)nc23)cc1 [Example 72, N^2-(3,5-Dichloro-pyridin-4-yl)-N^7-(4-trifluoromethyl-phenyl)-thiazolo[5,4-d]pyrimidine-2,7-diamine]
- IC50 (human TRPV1): 740 nM
- IC50 (rat TRPV1): 627 nM
